{"source": "patent US7323490B2", "about": "“Pyrrole compounds and uses thereof” (Ambit Biosciences Corporation, priority 2003, dated 2008)", "key": {"HMG-CoA reductase": {"molecular_target": "T1, HMG-CoA reductase (Homo sapiens, UniProt P04035)", "T1 sequence (P04035 1-888)": "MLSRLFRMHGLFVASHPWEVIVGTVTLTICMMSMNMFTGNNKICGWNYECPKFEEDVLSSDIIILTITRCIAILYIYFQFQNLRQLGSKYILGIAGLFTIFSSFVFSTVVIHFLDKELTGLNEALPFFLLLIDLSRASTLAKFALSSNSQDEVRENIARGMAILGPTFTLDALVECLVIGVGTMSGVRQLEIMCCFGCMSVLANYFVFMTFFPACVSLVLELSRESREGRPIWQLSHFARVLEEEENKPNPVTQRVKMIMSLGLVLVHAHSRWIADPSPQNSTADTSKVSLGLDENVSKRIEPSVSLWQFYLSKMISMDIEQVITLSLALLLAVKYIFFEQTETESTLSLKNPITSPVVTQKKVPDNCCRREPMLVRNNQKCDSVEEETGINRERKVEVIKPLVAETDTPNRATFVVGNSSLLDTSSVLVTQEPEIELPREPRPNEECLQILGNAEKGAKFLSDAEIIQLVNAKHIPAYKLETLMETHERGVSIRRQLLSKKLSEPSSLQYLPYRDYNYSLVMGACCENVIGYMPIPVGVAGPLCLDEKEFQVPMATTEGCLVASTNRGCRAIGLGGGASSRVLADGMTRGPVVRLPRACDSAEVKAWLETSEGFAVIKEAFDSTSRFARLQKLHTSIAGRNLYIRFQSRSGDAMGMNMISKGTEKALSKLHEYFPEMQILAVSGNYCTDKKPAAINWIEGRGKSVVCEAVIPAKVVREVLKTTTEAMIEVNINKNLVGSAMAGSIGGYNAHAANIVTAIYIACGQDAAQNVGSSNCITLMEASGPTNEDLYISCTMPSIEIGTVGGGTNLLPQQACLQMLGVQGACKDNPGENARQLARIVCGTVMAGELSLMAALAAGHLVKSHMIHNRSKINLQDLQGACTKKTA", "test": "enzymatic activity-based HMG-CoA reductase assay", "type": "biochemical", "details": "concentrations up to 4 μM", "method": "In addition, compounds 781430, 781066, 780780, 780754, 779974, 781456, 782236, 782756, 783250 and 780520 were tested in enzymatic activity-based HMG-CoA reductase assays. […] Blank cells indicate there was no detectable interaction while the “nd” designation indicates the Kd was not determined."}, "PDE6D [1]": {"molecular_target": "T2, PDE6D (Homo sapiens, UniProt O43924)", "test": "T7 phage display competition binding assay (immobilized atorvastatin), PDE6D", "parameters": "made in house; host or cells: T7 phage amplified in E. coli", "details": "soluble competitor vs atorvastatin-coated affinity matrix; T7 phage displaying human PDE6D", "from_the_text": "(§1) The T7 phage displaying human PDE6D and CLB2 were obtained following the procedure of WO 01/18234, published Mar. 15, 2001, and U.S. patent applications Ser. No. 10/115,442, “Phage Display Affinity Filter and Forward Screen,” filed Apr. 2, 2002 and Ser. No. 10/214,654, “Uncoupling DNA Insert Propagation and Protein Display,” filed Aug. 7, 2002. […] The phage eluate was then amplified by growth in E. coli and the affinity enrichment procedure was repeated.\n(§2) The dissociation constants, Kd's, for the interaction between the pyrrole compounds and the novel targets were obtained following the procedure of the co-pending patent applications U.S. Ser. Nos. 10/115,442, “Phage Display Affinity Filter and Forward Screen,” filed Apr. 2, 2002 and 60/480,587, “Protein Family Profiling Tool and Methods,” filed Jun. 20, 2003."}, "CLB2": {"molecular_target": "T3, CLB2 (Homo sapiens, UniProt P22676)", "T3 construct": "made in house; host or cells: T7 phage amplified in E. coli", "T3 sequence (P22676 1-271)": "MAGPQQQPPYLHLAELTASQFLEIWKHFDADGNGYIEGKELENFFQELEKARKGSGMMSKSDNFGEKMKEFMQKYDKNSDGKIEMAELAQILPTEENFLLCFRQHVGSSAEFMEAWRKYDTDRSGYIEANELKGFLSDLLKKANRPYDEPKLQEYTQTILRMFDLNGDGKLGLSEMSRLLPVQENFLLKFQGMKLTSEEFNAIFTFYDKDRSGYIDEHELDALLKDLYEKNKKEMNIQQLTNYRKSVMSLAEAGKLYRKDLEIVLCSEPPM", "test": "T7 phage display competition binding assay (immobilized atorvastatin), CLB2", "details": "soluble competitor vs atorvastatin-coated affinity matrix; T7 phage displaying CLB2", "from_the_text": "as §1, §2"}, "[2]": {"molecular_target": "T4, PDE6D::HA11 fusion protein (Homo sapiens, UniProt O43924)", "T4 construct": "made in house; host or cells: coupled transcription-translation in rabbit reticulocyte lysate (pTNT vector)", "test": "Binding assay with rabbit reticulocyte lysate-produced human PDE6D", "details": "absence or presence of 10 μM non-immobilized atorvastatin; dot blot"}, "rat liver NQO2": {"molecular_target": "T5, rat liver NQO2 (Rattus norvegicus, UniProt Q6AY80)", "T5 construct": "from tissue; host or cells: rat liver protein extract", "T5 sequence (Q6AY80 1-231)": "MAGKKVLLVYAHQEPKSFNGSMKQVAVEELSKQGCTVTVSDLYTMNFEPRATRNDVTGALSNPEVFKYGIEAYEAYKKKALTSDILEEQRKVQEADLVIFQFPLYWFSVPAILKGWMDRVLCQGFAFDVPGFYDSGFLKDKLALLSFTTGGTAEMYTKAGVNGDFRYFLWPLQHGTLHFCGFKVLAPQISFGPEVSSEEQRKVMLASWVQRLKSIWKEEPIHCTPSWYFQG", "test": "Binding curve assay, rat liver NQO2 and atorvastatin bait", "details": "rat liver extract; semi-quantitative, densitometric scanning of silver-stained gel; read-out: apparent Kd NQO2"}, "NQO2": {"molecular_target": "T6, NQO2 (Rattus norvegicus, UniProt Q6AY80)", "T6 construct": "from tissue; host or cells: rat liver or brain protein extract", "T6 sequence (Q6AY80 1-231)": "T5 sequence (Q6AY80 1-231)", "test": "NQO2 binding pocket competition experiment, rat brain protein extract", "details": "competitors menadione, quercetin, FAD", "from_the_text": "The crystal structure of the NQO2 protein has shown that this protein contains three distinct binding pockets. […] The data were obtained by loading the pooled eluates on a SDS-PAGE gel followed by silver staining."}, "PDE6D [3]": {"molecular_target": "T2, PDE6D", "test": "Binding assay with E. coli-expressed human PDE6D", "parameters": "made in house; host or cells: T7 phage amplified in E. coli", "details": "10 μM competitors; dot blot", "method": "The full-length coding sequence for human PDE6D was cloned into the pRSET vector for E. coli expression. The PDE6D coding sequence was fused in-frame with a His tag for purification purposes. […] The experiments were performed in duplicate. The data were obtained by loading the eluates from the binding experiment on a dot blot apparatus and subsequent detection with a PDE6D-specific antibody."}}, "data": [{"smiles": "CC(C)c1c(C(=O)Nc2ccccc2)c(-c2ccccc2)c(-c2ccc(F)cc2)n1CC(O)C(O)C(O)C(O)CO", "note": "(stereo not drawn) [Compound 782236]", "values": [{"measurement": "inhibition of the activity of HMG-CoA reductase", "setting": "HMG-CoA reductase", "value": "none of the tested compounds inhibited"}, {"measurement": "Kd", "setting": "PDE6D [1]", "value": 269, "unit": "nM"}]}, {"smiles": "CC(C)c1[nH]c(-c2ccc(F)cc2)c(-c2ccccc2)c1C(=O)Nc1ccccc1", "note": "[Compound 781430]", "values": [{"measurement": "Kd", "setting": "CLB2", "value": 940, "unit": "nM"}, {"measurement": "inhibition of the activity of HMG-CoA reductase", "setting": "HMG-CoA reductase", "value": "none of the tested compounds inhibited"}, {"measurement": "Kd", "setting": "PDE6D [1]", "value": 75, "unit": "nM"}]}, {"smiles": "CC(C)c1c(C(=O)Nc2ccccc2)c(-c2ccccc2)c(-c2ccc(F)cc2)n1CC[C@@H](O)C[C@@H](O)CC(=O)O", "note": "[atorvastatin, reference compound]", "values": [{"measurement": "binding of PDE6D::HA11 fusion protein to immobilized atorvastatin bait", "setting": "[2]", "value": "PDE6D bound to atorvastatin"}, {"measurement": "Kd", "setting": "rat liver NQO2", "value": "~500", "unit": "nM"}, {"measurement": "NQO2 binding pocket", "setting": "NQO2", "value": "binds the electron donor NRH pocket"}, {"measurement": "binding of E. coli expressed human PDE6D to immobilized atorvastatin bait", "setting": "PDE6D [3]", "value": "E. coli expressed human PDE6D binds to atorvastatin"}]}]}
